Laboratory results as given in the NIST ThermoML archive (doi:10.1016/j.jct.2016.08.002).

How the values were obtained:
[1] = Molar enthalpy of transition or fusion; conditions: Crystal; DSC
[2] = for vapor or sublimation pressure: Transpiration method; for Normal melting temperature: DTA

NC(=O)c1ccccn1 [2-pyridinecarboxamide]
Conditions | Molar enthalpy of transition or fusion [kcal/mol]
[1] | 4.59

[2]
Conditions | vapor or sublimation pressure [kPa]
343 K, Crystal | 0.0079
348 K, Crystal | 0.0125
353.1 K, Crystal | 0.0192
353.2 K, Crystal | 0.0194
358.2 K, Crystal | 0.0302
363.3 K, Crystal | 0.0459
368.3 K, Crystal | 0.0687
373.3 K, Crystal | 0.1028
385.4 K, Liquid | 0.2394
390.4 K, Liquid | 0.3199
395.5 K, Liquid | 0.416
400.6 K, Liquid | 0.5427
405.6 K, Liquid | 0.7049
410.7 K, Liquid | 0.9324
415.8 K, Liquid | 1.202

Conditions | Normal melting temperature [°C]
[2], Crystal | 106.4

NC(=O)c1cccnc1 [3-pyridinecarboxamide]
Conditions | Molar enthalpy of transition or fusion [kcal/mol]
[1] | 5.71

[2], Crystal
Conditions | vapor or sublimation pressure [kPa]
353.2 K | 0.00036
358.3 K | 0.0006
363.4 K | 0.00104
363.5 K | 0.00105
370.6 K | 0.00207
378.6 K | 0.00436
383.8 K | 0.0069
388.8 K | 0.01096
394.9 K | 0.01844
398.9 K | 0.02467

Conditions | Normal melting temperature [°C]
[2], Crystal | 130.1

NC(=O)c1ccncc1 [4-pyridinecarboxamide]
Conditions | Molar enthalpy of transition or fusion [kcal/mol]
[1] | 5.52

[2], Crystal
Conditions | vapor or sublimation pressure [kPa]
358.2 K | 0.00043
363.3 K | 0.00072
368.4 K | 0.00117
373.4 K | 0.0019
373.5 K | 0.00191
378.5 K | 0.00296
383.7 K | 0.00472
388.7 K | 0.00724
393.8 K | 0.01115
398.8 K | 0.01672
404 K | 0.02482
409 K | 0.03719

Conditions | Normal melting temperature [°C]
[2], Crystal | 155.2
